Results on 43 molecules are retold here after patent US11629139B2 (priority 2017, dated 2023).

SMILES strings stand for the structures. A value given as a limit tells only on which side of the number the result lay.

In one assay the test system is vesicular stomatitis virus particles (VSV) pseudotyped with EboV Zaire GP. Put plainly: microbe, parasite or virus in culture.
Settings: not given
The assay is classed as cell-based.
As usually defined, the IC50 is the midpoint of a concentration-inhibition curve. Low values mean greater potency, high ones weaker potency. `Nc1ccc(Cl)cc1CN1CCN(C(=O)CNC(=O)C2CC23CCC3)CC1` (stereo not shown) [Compound 1409, N-(2-(4-(2-Amino-5-chlorobenzyl)piperazin-1-yl)-2-oxoethyl)spiro[2.3]hexane-1-carboxamide] came in with a concentration for half-maximal inhibition (IC50) of 2900 nM.
On the same count and under the same terms, next, `Nc1ccc(Cl)cc1CN1CCN(C(=O)CNC(=O)C2CC23CCCC3)CC1` (stereo not shown) [Compound 1410, N-(2-(4-(2-Amino-5-chlorobenzyl)piperazin-1-yl)-2-oxoethyl)spiro[2.4]heptane-1-carboxamide]: 220 to 490 nM.

Staying with this assay, now noted: Vesicular stomatitis virus.
In turn, `CCC1(CC)CC1C(=O)NCC(=O)N1CCN(Cc2cc(Cl)ccc2N)CC1` (stereo not shown) [Compound 1411, N-(2-(4-(2-amino-5-chlorobenzyl)piperazin-1-yl)-2-oxoethyl)-2,2-diethylcyclopropane-1-carboxamide] returned an IC50 of 140 nM.
Molecule `O=C(NCC(=O)N1CCN(Cc2cccc3cccnc23)CC1)C1CC12CCC(F)(F)CC2` (stereo not shown) [Compound 1420, 6,6-Difluoro-N-(2-oxo-2-(4-(quinolin-8-ylmethyl)piperazin-1-yl)ethyl)spiro[2.5]octane-1-carboxamide] gave an IC50 of 490 nM.
Turning to `O=C(NCC(=O)N1CCN(Cc2cc(Cl)cc3cn[nH]c23)CC1)C1CC12CCC(F)(F)CC2` (stereo not shown) [Compound 1421, N-(2-(4-((5-Chloro-JH-indazol-7-yl)methyl)piperazin-1-yl)-2-oxoethyl)-6,6-difluorospiro[2.5]octane-1-carboxamide], the IC50 is greater than 5000 nM.
Same read-out and setting: next, `O=C(CC1CCC(F)(F)CC1)NCC(=O)N1CCN(Cc2cc(Cl)cc3cccnc23)CC1` [Compound 1422, N-(2-(4-((6-Chloroquinolin-8-yl)methyl)piperazin-1-yl)-2-oxoethyl)-2-(4,4-difluorocyclohexyl)acetamide]: 360 nM; `CC1(CC(=O)NCC(=O)N2CCN(Cc3cc(Cl)cc4cccnc34)CC2)CCOCC1` [Compound 1424]: 2800 nM; `O=C(NCC(=O)N1CCN(Cc2cc(Cl)ccc2O)CC1)C1CC1c1ccc(F)cc1` (stereo not shown) [Compound 1425, N-(2-(4-(5-Chloro-2-hydroxybenzyl)piperazin-1-yl)-2-oxoethyl)-2-(4-fluorophenyl)cyclopropane-1-carboxamide]: 3400 nM.
Still for that read-out and setting: next, `O=C(CC1CCC(F)(F)CC1)NCC(=O)N1CCN(Cc2cccc3ccncc23)CC1` [Compound 1427]: 2450 nM; `O=C(CC1CCC(F)(F)CC1)NCC(=O)N1CCN(Cc2cccc3ncccc23)CC1` [Compound 1428, 2-(4,4-Difluorocyclohexyl)-N-(2-oxo-2-(4-(quinolin-5-ylmethyl)piperazin-1-yl)ethyl)acetamide]: greater than 5000 nM; `O=C(CC1CCC(F)(F)CC1)NCC(=O)N1CCN(Cc2cc(F)cc3cccnc23)CC1` [Compound 1429, 2-(4,4-Difluorocyclohexyl)-N-(2-(4-((6-fluoroquinolin-8-yl)methyl)piperazin-1-yl)-2-oxoethyl)acetamide]: 950 nM.
Still for that read-out and setting: the result for `Cc1ccc(Cl)cc1CN1CCN(C(=O)CNC(=O)C2CC23CCC(F)(F)CC3)CC1` (stereo not shown) [Compound 1431, N-(2-(4-(5-Chloro-2-methylbenzyl)piperazin-1-yl)-2-oxoethyl)-6,6-difluorospiro[2.5]octane-1-carboxamide] reads 550 nM; that for `O=C(CC1CCC(F)(F)CC1)NCC(=O)N1CCN(Cc2cc(Cl)cc(Oc3ccncc3)c2)CC1` [Compound 1432, N-(2-(4-(3-Chloro-5-(pyridin-4-yloxy)benzyl)piperazin-1-yl)-2-oxoethyl)-2-(4,4-difluorocyclohexyl)acetamide], 185 nM; that for `[2H]C([2H])(c1cc(Cl)cc2cc[nH]c12)N1CCN(C(=O)CNC(=O)CC2CCC(F)(F)CC2)CC1` [Compound 1433, N-(2-(4-((5-Chloro-JH-indol-7-yl)methyl-d2)piperazin-1-yl)-2-oxoethyl)-2-(4,4-difluorocyclohexyl)acetamide], greater than 5000 nM.
`COC(=O)c1cccc(-c2cc(Cl)cc(CN3CCN(C(=O)CNC(=O)CC45CC6CC(C4)C(C6)C5)CC3)c2)c1` [Compound 1441] returned a concentration for half-maximal inhibition (IC50) of 248 nM.
Same read-out and setting: next, `CC(=O)N1CCC(Oc2cc(F)cc(CN3CCN(C(=O)CNC(=O)C4CC45CCC(F)(F)CC5)CC3)c2)CC1` (stereo not shown) [Compound 1442]: 600 nM.
Same read-out and setting: the result for `CS(=O)(=O)c1ccc(COc2ccc(F)cc2CN2CCN(C(=O)CNC(=O)CC34CC5CC(CC(C5)C3)C4)CC2)cc1` [Compound 1443] reads 4.5 nM.
Still for that read-out and setting: the result for `O=C(CC12CC3CC(C1)C(C3)C2)NCC(=O)N1CCN(Cc2cc(F)ccc2OCc2ccc3nonc3c2)CC1` [Compound 1444] reads 25 nM; that for `CC(=O)Nc1ccc(COc2ccc(F)cc2CN2CCN(C(=O)CNC(=O)CC34CC5CC(C3)C(C5)C4)CC2)cc1` [Compound 1445], 710 nM.
In turn, `O=C(CC1CCC(F)(F)CC1)NCC(=O)N1CCN(Cc2cccc(Oc3ccccn3)c2)CC1` [Compound 1451] yielded an IC50 greater than 5000 nM.
The same measure, in the same setting: next, `CC(=O)N1CCCC(Oc2cc(F)cc(CN3CCN(C(=O)CNC(=O)C4CC45CCC(F)(F)CC5)CC3)c2)C1` (stereo not shown) [Compound 1453]: greater than 5000 nM; `CS(=O)(=O)c1ccc(COc2ccc(F)cc2CN2CCN(C(=O)CNC(=O)CC3CCC(F)(F)CC3)CC2)cc1` [Compound 1455]: 40 nM.
On the same count and under the same terms, the result for `O=C(CC1CCC(F)(F)CC1)NCC(=O)N1CCN(Cc2cc(F)ccc2OCc2ccc3nonc3c2)CC1` [Compound 1456] reads 190 nM; that for `CS(=O)(=O)c1ccc(Oc2cc(F)cc(CN3CCN(C(=O)CNC(=O)C4CC45CCC(F)(F)CC5)CC3)c2)cc1` (stereo not shown) [Compound 1459], 200 nM; that for `CS(=O)(=O)c1ccc(Oc2cc(F)cc(CN3CCN(C(=O)CNC(=O)CC4CCC(F)(F)CC4)CC3)c2)cc1` [Compound 1460], greater than 1000 nM.
In turn, `CS(=O)(=O)c1ccc(Oc2cc(Cl)cc(CN3CCN(C(=O)CNC(=O)C4CC45CCC(F)(F)CC5)CC3)c2)cc1` (stereo not shown) [Compound 1461] returned a 50% inhibitory concentration (IC50) of 150 nM.
The molecule `CS(=O)(=O)c1ccc(Oc2cc(Cl)cc(CN3CCN(C(=O)CNC(=O)CC4CCC(F)(F)CC4)CC3)c2)cc1` [Compound 1462] displayed an IC50 greater than 1000 nM.
The same measure, in the same setting: the result for `[2H]C([2H])(c1cc(Cl)ccc1NCC)N1CCN(C(=O)CNC(=O)C2CC23CCC(F)(F)CC3)CC1` (stereo not shown) [Compound 1534] reads 200 nM; that for `CS(=O)(=O)c1ccc(COc2ccc(Cl)cc2CN2CCN(C(=O)CNC(=O)C3CC34CCCCC4)CC2)cc1` (stereo not shown) [Compound 1539, Spiro[2.5]octane-1-carboxylic acid (2-{4-[5-chloro-2-(4-methanesulfonyl-benzyloxy)-benzyl]-piperazin-1-yl}-2-oxo-ethyl)-amide], 100 nM; that for `[2H]C([2H])(c1cc(Cl)ccc1NCc1ccc(C(=O)OC)cn1)N1CCN(C(=O)CNC(=O)C2CC23CCC(F)(F)CC3)CC1` (stereo not shown) [Compound 1548, 6-{[4-Chloro-2-(4-{2-[(6,6-difluoro-spiro[2.5]octane-1-carbonyl)-amino]-acetyl}-piperazin-1-yl-di-deutero-methyl)-phenylamino]-methyl}-nicotinic acid methyl ester], 7 nM.
The same measure, in the same setting: the result for `[2H]C([2H])(c1cc(Cl)ccc1NCc1ccc(C(=O)OC)nc1)N1CCN(C(=O)CNC(=O)C2CC23CCC(F)(F)CC3)CC1` (stereo not shown) [Compound 1549, 5-{[4-Chloro-2-(4-{2-[(6,6-difluoro-spiro[2.5]octane-1-carbonyl)-amino]-acetyl}-piperazin-1-yl-di-deutero-methyl)-phenylamino]-methyl}-pyridine-2-carboxylic acid methyl ester] reads 50 nM; that for `[2H]C([2H])(c1cc(Cl)ccc1NCc1cnco1)N1CCN(C(=O)CNC(=O)C2CC23CCC(F)(F)CC3)CC1` (stereo not shown) [Compound 1560], 40 nM.
`[2H]C([2H])(c1cc(Cl)ccc1NCc1ccc(S(C)(=O)=O)c(F)c1)N1CCN(C(=O)CNC(=O)[C@@H]2CC23CCC(F)(F)CC3)CC1` [Compound 1561] returned an IC50 of 8 nM.
Molecule `[2H]C([2H])(c1cc(Cl)ccc1NCc1ccc(S(C)(=O)=O)cc1F)N1CCN(C(=O)CNC(=O)[C@@H]2CC23CCC(F)(F)CC3)CC1` [Compound 1562] gave an IC50 of 13 nM.
`[2H]C([2H])(c1cc(Cl)ccc1NCc1ncccn1)N1CCN(C(=O)CNC(=O)[C@@H]2CC23CCC(F)(F)CC3)CC1` [Compound 1580] gave an IC50 of 700 nM. Compared with the last molecule, the IC50 is about 54-fold higher.
In turn, `[2H]C([2H])(c1cc(Cl)ccc1NCc1ccon1)N1CCN(C(=O)CNC(=O)[C@@H]2CC23CCC(F)(F)CC3)CC1` [Compound 1581] yielded an IC50 of 470 nM.
`[2H]C([2H])(c1cc(Cl)ccc1NCc1ccc(F)cn1)N1CCN(C(=O)CNC(=O)[C@@H]2CC23CCC(F)(F)CC3)CC1` [Compound 1582] yielded an IC50 of 240 nM.
As to `[2H]C([2H])(c1cc(Cl)ccc1NCc1cocn1)N1CCN(C(=O)CNC(=O)[C@@H]2CC23CCC(F)(F)CC3)CC1` [Compound 1583], the IC50 turned out to be 150 nM.
Still for that read-out and setting: next, `[2H]C([2H])(c1cc(Cl)ccc1NCc1ccc(C#N)cn1)N1CCN(C(=O)CNC(=O)[C@@H]2CC23CCC(F)(F)CC3)CC1` [Compound 1584]: 30 nM.
In turn, `O=C(NCC(=O)N1CCN(Cc2cc(Cl)ccc2NCc2ncco2)CC1)[C@@H]1CC12CCC(F)(F)CC2` [Compound 1585] had an IC50 of 1300 nM.
The same measure, in the same setting: the result for `[2H]C([2H])(c1cc(Cl)ccc1NCc1ccc(S(C)(=O)=O)cn1)N1CCN(C(=O)CNC(=O)[C@@H]2CC23CCC(F)(F)CC3)CC1` [Compound 1586] reads 45 nM; that for `[2H]C([2H])(c1cc(Cl)ccc1NCc1cnco1)N1CCN(C(=O)CNC(=O)[C@@H]2CC23CCC(F)(F)CC3)CC1` [Compound 1587], 130 nM.
Still for that read-out and setting: next, `CS(=O)(=O)c1ccc(COc2ccc(Cl)cc2CN2CCN(C(=O)CNC(=O)C3CC34CCC(F)(F)CC4)CC2)nc1` (stereo not shown) [Compound 1621, 6,6-Difluoro-spiro[2.5]octane-1-carboxylic acid (2-{4-[5-chloro-2-(5-methanesulfonyl-pyridin-2-ylmethoxy)-benzyl]-piperazin-1-yl}-2-oxo-ethyl)-amide]: 30 nM.
